{"source": "patent US8067535B2", "about": "(priority 2003, dated 2011)", "key": {"[1]": {"tested_on": "vaccinia virus-specific CD8^+ CTL lines", "type": "cell-based, human"}, "[2]": {"tested_on": "CD8^+ T cells in PBMCs of HLA-A0201-positive donors", "type": "cell-based, human"}}}
{"sequence": "KVDDTFYYV [peptide 165]", "values": [{"measurement": "recognition by CTL line", "setting": "[1]", "value": "recognized"}, {"measurement": "specific recognition of epitope peptide by CTL line", "setting": "[1]", "value": "high level of specific recognition"}, {"measurement": "kinetics of the frequency of epitope-specific CD8^+ T cells: peak", "setting": "[2]", "value": "peaked two weeks after primary immunization"}, {"measurement": "kinetics of the frequency of epitope-specific CD8^+ T cells: persistence", "setting": "[2]", "value": "still detectable one to three years following primary immunization"}]}
{"sequence": "LLYAHINAL [peptide 029D]", "values": [{"measurement": "recognition by CTL line", "setting": "[1]", "value": "recognized"}]}
{"sequence": "MPAYIRNTL [peptide B7034]", "values": [{"measurement": "recognition by CTL line", "setting": "[1]", "value": "recognized"}]}
{"sequence": "TVADVRHCL [peptide B7080]", "values": [{"measurement": "recognition by CTL line", "setting": "[1]", "value": "recognized"}]}
{"sequence": "CLTEYILWV [peptide 74A]", "values": [{"measurement": "recognition by CTL line", "setting": "[1]", "value": "recognized"}, {"measurement": "specific recognition of epitope peptide by CTL line", "setting": "[1]", "value": "high level of specific recognition"}, {"measurement": "kinetics of the frequency of epitope-specific CD8^+ T cells: peak", "setting": "[2]", "value": "peaked two weeks after primary immunization"}, {"measurement": "kinetics of the frequency of epitope-specific CD8^+ T cells: persistence", "setting": "[2]", "value": "still detectable one to three years following primary immunization"}]}
